Patent US6967034B2, “Herbal-based composition for treating acute and chronic myeloid leukemia” (Council of Scientific and Industrial Research, priority 2002, dated 2005)

Assays:
Assay type in all cases: cell-based, human
[1] = system: CD33+ myeloid leukemia cells; experiment: Incubation of PBMC of CD33+ myeloid leukemia patients, viability count and flow cytometry; conditions: purified compound, varied concentrations, 48 h
Experimental: Preparation of peripheral blood mononuclear cells (PBMC) from CD33+ myeloid leukemia patients ex vivo blood.
(§1) Whole blood (10 ml) was drawn from a previously diagnosed CD33+ myeloid leukemic patient and mononuclear cells were separated by Ficoll/hypaqal density gradient centrifugation.
Incubation of PBMC of myeloid leukemia patients with crude Piper betel extract. PBMC (2×10^6/ml) of myeloid leukemia patients were incubated with Piper betel extract (10.0 mg/ml) for 48 hours and then washed and counted for viability.
Incubation of PBMC of myeloid leukemia patients with fraction E in vitro. PBMC (2×10^6/ml) of myeloid leukemia patients were incubated with varied concentrations of fraction E for 48 hours. Cells were then washed and counted for viability.
(§2) Incubation of PBMC of myeloid leukemia patients with purified compound 3-O-p-coumaryl quinic acid in vitro. PBMC (2×10^6/ml) of myeloid leukemia patients were incubated with varied concentrations of purified compound for 48 h. Cells were then washed, and counted for viability.
Flow cytometry of myeloid leukemia cells. Myeloid leukemia cells before and after in vitro incubation with crude Piper betel extract, purified fraction E or purified 3-O-p-coumaryl quinic acid were marked with anti-CD33-FITC and anti-CD13-PE monoclonal antibodies. Cells were then analysed in a flow cytometer (FACS Calibur, Bection Dickinson, USA)

AML cells = experiment: Growth inhibition of AML cells in vitro; conditions: 48 h
Experimental: as §1, §2
Incubation of myeloid leukemic cells with fractions having retention time 3.60 (fraction-1) and 24.00 min (fraction 9). PBMC of myeloid leukemic patients were incubated with above-mentioned fractions, alone or in combination of the two for 48 HRs. Cells were then washed and counted for viability.

CML cells = experiment: Growth inhibition of CML cells in vitro; conditions: 48 h
Experimental: as §1, §2

## O=C(C=Cc1ccc(O)cc1)OC1CC(O)(C(=O)O)CC(O)C1O (stereo not drawn) [3-O-p-coumaryl quinic acid]
[1]
  Destruction of PBMC of CD33+ myeloid leukemia patients (both AML and CML): destroyed
AML cells; 100 μg/ml
  Percent inhibition of growth: 53.37%
AML cells; 600 μg/ml
  Percent inhibition of growth: 100.00%
AML cells; single fraction, dose 100 μg/ml
  % Inhibition (percent inhibition of growth): 54.00%
CML cells; 100 μg/ml
  Percent inhibition of growth: 2.53%
CML cells; 600 μg/ml
  Percent inhibition of growth: 79.50%
